Experimental findings from US8715747B2, “Biocomposition stimulant of the immune system, anti-tumor and anti-HIV” (Pharmabrand S.A., priority 2007, dated 2014) are described below.

Assay [1] relates to S. aureus. Briefly: Microbiological test for bactericidal properties (inhibition halo), S. aureus. The class given is cell-based, Staphylococcus aureus. The conditions noted are these: Gentamicin 2 μg/ml. An excerpt:
Microbiological Tests to Determine Bactericidal Properties of the Aqueous and Ethanolic Extracts of the Composition of the Invention:
The inhibitory halo of FT001 registered a diameter of approximately 12 mm.

Assay [2] concerns prostate cancer with node metastases and invasion of the bladder floor. Nature of the assay: Clinical observation: patient with prostate cancer, tumor markers PSA and CEA. The arrangement: PSA: unit not given beside the values. It is filed as in vivo, human. An excerpt:
The patient is an individual diagnosed with prostate cancer with node metastases and invasion of the bladder floor. […] In March 2003, PSA level was 1096, the carcinoembryonic antigen was 6.85.
Carcinoembryonic antigen is a substance that usually only appears during fetal development and reappears again in adults who develop certain types of cancer: colon, rectum, stomach, esophagus, liver, pancreas, bladder, and breast (female mammary gland), lung and prostate as well.
The test of carcinoembryonic antigen (CEA) plays an important role in monitoring patient outcomes with cancer and metastasis. Even though it can not be considered a final marker, it serves as a useful guide. Its constant increase means that therapy has not achieved positive results. A decrease indicates a trend towards regression of the lesion.
The patient starts with a daily dose of 250 mg of Flutamide (fluxus) until reaching a PSA of 252. After 4 months, PSA reaches 525. From this point, the patient receives a double dose of Flutamide until registering a PSA of 256. CEA level was 5.84. After three months PSA rises again to 580. The tumor becomes resistant to hormone therapy. […] At first, PSA level was 600 and CEA level was 8.86. […] CEA level has dropped to 6.51. PSA level has changed to 700, a much better value if compared to the resistance to flutamide.
The patient underwent surgery to improve the diameter of the urethra and to remove the catheter that started to produce frequent bleeding. After the surgery, the patient suffered a massive infection due to Escherichia coli bacteria. They received anti-bacterial treatment with good results. PSA reached 698. After the surgery, the administration of the composition of the invention re-started, and after 2 months, PSA dropped to 88 and CEA to 5.04. During the following 2 months, PSA level reached 10 ng/ml level. After 70 days, PSA registers 4 ng/ml levels, which are considered normal values. CEA level was 3.97. Currently, the patient has returned to work (August, 2005). They had also had dialysis due to complications during the surgery. The patient has been taking the composition in daily basis during the next two years, maintaining a good health condition. Despite the three dialysis sessions per week that they are receiving, […] general state is good; they manage to do everything by themself and exercises every morning; PSA is 15 but CEA has always been 2.5 ng/ml. During these two years (March, 2007), they have kept a strict diet and has not received any other type of anti-tumor therapy.

In the case of Gentamicin, the “halo of the lower standard” value in assay [1] came to 12.2 mm.

For the compound `CC(C)C(=O)Nc1ccc([N+](=O)[O-])c(C(F)(F)F)c1` [Flutamide], the PSA worked out at 525 in assay [2] (250 mg Flutamide daily, after 4 months); 252 in assay [2] (daily dose of 250 mg Flutamide, start PSA 1096); 256 in assay [2] (double dose of Flutamide); 580 in assay [2] (double dose of Flutamide, after three months, PSA rises again). The compound also came in with a CEA level in assay [2] (double dose of Flutamide) of 5.84.
